Tested on: Plasmodium falciparum 3D7
Experiment: P. falciparum 3D7 asexual blood stage assay, Assay Procedure Version 2 (SYBR green readout)
Format: cell-based
Conditions: Version 2 of the assay procedure (asterisk *), 72 h incubation in infected erythrocytes, 50,000 nM to 15 nM
Protocol: Asexual Blood Stage Assay
The assay used to measure the effect of test compounds on a bloodstream stage of Plasmodium falciparum 3D7 strain employs SYBR green as the readout. This is a dye that binds to double stranded deoxyribonucleic acid (DNA) with a resulting increase in fluorescence, allowing detection of P. falciparum DNA in infected erythrocytes, and thereby providing a measure of parasite growth and propagation.
P. falciparum Culture Maintenance
Erythrocytes (A+blood) were prepared for both parasite culture and assay by washing 4 times with incomplete media (15.9 g RPMI 1640 (25 mM HEPES, L-glutamine), 1 g NaHCO3, 2 g glucose, 400 μL gentacin (500 mg/mL), 2 mL hypoxanthine solution (13.6 g/L in 0.1M NaOH pH 7.3) in 1 litre of media). The cells were centrifuged at 1800 g for 5 minutes, before decanting the supernatant and re-suspending in fresh incomplete media. On the final wash, the cells were re-suspended in complete media (incomplete media with 5 g/L AlbumaxII), and centrifuged at 1800 g for 3 minutes. This cell sediment was treated as 100% haematocrit.
P. falciparum 3D7 was cultured in erythrocytes at 5% haematocrit in complete media at 37° C. (1% O2, 3% CO2, balance N2). Cultures were split on a weekly basis to achieve a 1% parasitaemia in erythrocites at 5% haematocrit in fresh media. Culture media is replaced by fresh media every other day (2 times during the week).
[formula] where A=% inhibition at bottom; B=% inhibition at top; C=EC50; D=slope; x=inhibitor concentration; and y=% inhibition. […] Assay Procedure—Version 2
On day 1, test compounds were added to assay plates using Echo dispensing technology ([…] and 20 points titration). 50 nL of each compound dilution was added to 50 μL of culture (5% haematocrit, 0.5% parasitaemia) and incubated for 72 h at 37° C. (1% O2, 3% CO2, balance N2). Final concentrations of test compounds ranged from 50,000 nM to 15 nM, in […].
On day 4, 10 μL SYBR green (Invitrogen S7563 supplied as 10,000× concentrate in DMSO) pre-diluted to 3× concentrate with Lysis buffer (20 mM Tris pH 7.9, 5% EDTA, 0.16% w/v, 1.6% TX100 v/v) was added to the cultures and incubated in the dark, overnight, at room temperature.
On day 5, fluorescent signal was measured using a BioTek plate reader (excitation 485 nm, emission 528 nm). All data were processed using IDBS ActivityBase. Raw data were converted into percent inhibition through linear regression by setting the high inhibition control (mefloquine) as 100% and the no inhibition control (DMSO) as 0%. Quality control criteria for passing plates were as follows: Z′>0.5, S:B>3, % CV(no inhibition control)<15. The formula used to calculate Z′ is:
[formula] where μ denotes the mean; σ denotes the standard deviation; p denotes the positive control; and n denotes the negative control.
All EC50 curve fitting was undertaken using the following bi-phasic two site dose response using XLfit model 300 (IDBS):
[formula] where A=100 minus the top of the upper curve 1 and the bottom of lower curve; B=Hill slope; log(C)=IC50 concentration at lower site; log(D)=IC50 concentration at upper site; x=inhibitor concentration; and y=% inhibition.

[1] = Plasmodium falciparum, 3D7, Erythrocyte, 72 h

Row | IC50 | IC50 [1] | Structure (SMILES)
1 | 1.73 µM |  | CC1(C)CC(N2C(=N)N[C@](C)(c3cccc(Nc4ccc(C5CC5)nc4)c3Cl)CC2=O)CCO1 (single isomer, unassigned) [Example 158, (6S)-6-{2-Chloro-3-[(6-cyclo-propylpyridin-3-yl)amino]-phenyl}-3-[(4S*)-2,2-dimethyl-tetrahydropyran-4-yl]-2-imino-6-methylhexahydropyrimidin-4-one]
2 |  | 6.21 µM | CC1(C)CC(N2C(=N)N[C@](C)(c3cccc(Nc4ccn(C5CC5)c(=O)c4)c3Cl)CC2=O)CCO1 (single isomer, unassigned) [Example 205, (6S)-6-{2-Chloro-3-[(1-cyclo-propyl-2-oxopyridin-4-yl)-amino]phenyl}-3-[(4R*)-2,2-dimethyltetrahydropyran-4-yl]-2-imino-6-methylhexahydro-pyrimidin-4-one]
3 |  | 0.363 µM | C[C@@H]1C[C@@H](N2C(=N)N[C@](C)(c3cccc(Nc4ccc(OC(F)F)nc4)c3Cl)CC2=O)CCO1 (single isomer, unassigned; peak 1) [Example 191, (6S)-6-(2-Chloro-3-{[6-(difluoromethoxy)pyridin-3-yl]-amino}phenyl)-2-imino-6-methyl-3-[(2R*,4S*)-2-methyl-tetrahydropyran-4-yl]-hexahydropyrimidin-4-one (Peak 1)]
4 |  | 0.148 µM | C[C@@H]1C[C@@H](N2C(=N)N[C@](C)(c3cccc(Nc4ccc(C5CC5)nc4)c3Cl)CC2=O)CCO1 (single isomer, unassigned; peak 1) [Example 193, (6S)-6-{2-Chloro-3-[(6-cyclo-propylpyridin-3-yl)amino]-phenyl}-2-imino-6-methyl-3-[(2R*,4S*)-2-methyltetrahydro-pyran-4-yl]hexahydropyrimidin-4-one (Peak 1)]
5 |  | 0.244 µM | Cc1ccc(Nc2cccc([C@]3(C)CC(=O)N([C@H]4CCO[C@H](C)C4)C(=N)N3)c2Cl)cn1 (single isomer, unassigned; peak 1) [Example 195, (6S)-6-(2-Chloro-3-[(6-methyl-pyridin-3-yl)amino]phenyl}-2-imino-6-methyl-3-[(2R*,4S*)-2-methyltetrahydropyran-4-yl]-hexahydropyrimidin-4-one (Peak 1)]
6 |  | 3.71 µM | C[C@H]1C[C@H](N2C(=N)N[C@](C)(c3cccc(Nc4ccc(OC(F)F)nc4)c3Cl)CC2=O)CCO1 (single isomer, unassigned; peak 2) [Example 192, (6S)-6-(2-Chloro-3-{[6-(difluoromethoxy)pyridin-3-yl]-amino}phenyl)-2-imino-6-methyl-3-[(2S*,4R*)-2-methyl-tetrahydropyran-4-yl]-hexahydropyrimidin-4-one (Peak 2)]
7 |  | 0.747 µM | C[C@H]1C[C@H](N2C(=N)N[C@](C)(c3cccc(Nc4ccc(C5CC5)nc4)c3Cl)CC2=O)CCO1 (single isomer, unassigned; peak 2) [Example 194, (6S)-6-{2-Chloro-3-[(6-cyclo-propylpyridin-3-yl)amino]-phenyl}-2-imino-6-methyl-3-[(2S*,4R*)-2-methyltetrahydro-pyran-4-yl]hexahydropyrimidin-4-one (Peak 2)]
8 |  | 0.552 µM | Cc1ccc(Nc2cccc([C@]3(C)CC(=O)N([C@@H]4CCO[C@@H](C)C4)C(=N)N3)c2Cl)cn1 (single isomer, unassigned; peak 2) [Example 196, (6S)-6-{2-Chloro-3-[(6-methyl-pyridin-3-yl)amino]phenyl}-2-imino-6-methyl-3-[(2S*,4R*)-2-methyltetrahydropyran-4-yl]-hexahydropyrimidin-4-one (Peak 2)]
9 |  | 0.158 µM | C[C@@H]1C[C@H](N2C(=N)N[C@](C)(c3cccc(Nc4cc(F)c5ccnn5c4)c3Cl)CC2=O)CCO1 (stereo in doubt) [Example 137, (6S)-6-{2-Chloro-3-[(4-fluoro-pyrazolo[1,5-a]pyridin-6-yl)-amino]phenyl}-2-imino-6-methyl-3-[(cis)-2-methyl-tetrahydropyran-4-yl]-hexahydropyrimidin-4-one]
10 |  | 0.019 µM | C[C@@H]1C[C@H](N2C(=N)N[C@](C)(c3cccc(Nc4ccc(OC(F)F)nc4)c3Cl)CC2=O)CCO1 (stereo in doubt) [Example 138, (6S)-6-(2-Chloro-3-{[6-(difluoromethoxy)pyridin-3-yl]-amino}phenyl)-2-imino-6-methyl-3-[(cis)-2-methyl-tetrahydropyran-4-yl]-hexahydropyrimidin-4-one]
11 |  | 0.269 µM | C[C@@]1(c2cccc(Nc3ccc(OC(F)F)nc3)c2Cl)CC(=O)N(C2CCOCC2)C(=N)N1 [Example 42, (6S)-6-(2-Chloro-3-{[6-(difluoromethoxy)pyridin-3-yl]-amino}phenyl)-2-imino-6-methyl-3-(tetrahydropyran-4-yl)hexahydropyrimidin-4-one]
12 |  | 0.063 µM | C[C@@]1(c2cccc(Nc3ccccc3S(C)(=O)=O)c2Cl)CC(=O)N(C2CCOCC2)C(=N)N1 [Example 43, (6S)-6-[2-Chloro-3-(2-methyl-sulfonylanilino)phenyl]-2-imino-6-methyl-3-(tetrahydro-pyran-4-yl)hexahydropyrimidin-4-one]
13 |  | 0.815 µM | Cc1cnc(Nc2cccc([C@]3(C)CC(=O)N(C4CCOCC4)C(=N)N3)c2Cl)cn1 [Example 44, (6S)-6-{2-Chloro-3-[(5-methyl-pyrazin-2-yl)amino]phenyl}-2-imino-6-methyl-3-(tetrahydro-pyran-4-yl)hexahydropyrimidin-4-one]
14 |  | 0.305 µM | C[C@@]1(c2cccc(Nc3ccc(OC(F)(F)F)nc3)c2Cl)CC(=O)N(C2CCOCC2)C(=N)N1 [Example 45, (6S)-6-(2-Chloro-3-{[6-(trifluoromethoxy)pyridin-3-yl]-amino}phenyl)-2-imino-6-methyl-3-(tetrahydropyran-4-yl)hexahydropyrimidin-4-one]
15 |  | 0.425 µM | C[C@@]1(c2cccc(Nc3cncc4ccccc34)c2Cl)CC(=O)N(C2CCOCC2)C(=N)N1 [Example 46, (6S)-6-[2-Chloro-3-(isoquinolin-4-ylamino)phenyl]-2-imino-6-methyl-3-(tetrahydropyran-4-yl)hexahydropyrimidin-4-one]
16 |  | 0.171 µM | COc1cc(C#N)ccc1Nc1cccc([C@]2(C)CC(=O)N(C3CCOCC3)C(=N)N2)c1Cl [Example 47, 4-{2-Chloro-3-[(4S)-2-imino-4-methyl-6-oxo-1-(tetrahydro-pyran-4-yl)hexahydropyrimidin-4-yl]anilino}-3-methoxy-benzonitrile]
17 |  | 0.386 µM | C[C@@]1(c2cccc(Nc3cnccc3C#N)c2Cl)CC(=O)N(C2CCOCC2)C(=N)N1 [Example 48, 3-{2-Chloro-3-[(4S)-2-imino-4-methyl-6-oxo-1-(tetrahydro-pyran-4-yl)hexahydropyrimidin-4-yl]anilino}pyridine-4-carbo-nitrile]
18 |  | 0.468 µM | COc1ncc(Nc2cccc([C@]3(C)CC(=O)N(C4CCOCC4)C(=N)N3)c2Cl)cc1F [Example 49, (6S)-6-{2-Chloro-3-[(5-fluoro-6-methoxypyridin-3-yl)amino]-phenyl}-2-imino-6-methyl-3-(tetrahydropyran-4-yl)-hexahydropyrimidin-4-one]
19 |  | 0.373 µM | COc1ncccc1Nc1cccc([C@]2(C)CC(=O)N(C3CCOCC3)C(=N)N2)c1Cl [Example 50, (6S)-6-{2-Chloro-3-[(2-methoxypyridin-3-yl)amino]-phenyl}-2-imino-6-methyl-3-(tetrahydropyran-4-yl)-hexahydropyrimidin-4-one]

Source: patent US11479546B2, “Antimalarial hexahydropyrimidine analogues” (UCB Biopharma SRL, priority 2018, dated 2022)
